Data taken from patent US6692939B2, “Nucleotide sequences encoding mammalian calcium activated chloride channel-adhesion molecules” (Cornell Research Foundation, Inc., priority 1997, dated 2004).

B1: wtLu-ECAM-1: wild type Lu-ECAM-1 purified with mAb 6D3 from extracts of bovine aortic endothelial cells (protein)
chain: MVLCLNVILFLTLHLLPGMKSSMVNLINNGYDGIVIAINPSVPEDEKLIENIKEMVTEASTYLFHATKRRVYFRNVSILIPMTWKSKSEYFIPKQESYDQADVIVANPYLKYGDDPYTLQYGRCGEKGKYIHFTPNFLLTNNFHIYGSRGRVFVHEWAHLRWGIFDEYNVDQPFYISRKNTIEATRCSTHITGINVVFKKCPGGSCITSLCRRDSQTGLYEAKCTFLPKKSQTAKESIMFMPSLHSVTEFCTEKTHNTEAPNLQNKMCNGKSTWDVIMNSVDFQNTSPMTEMNPPTHPTFSLLKSKQRVVCLVLDKSGSMSAEDRLFQMNQAAELYLIQVIEKGSLVGMVTFDSVAEIQNHLTRITDDNVYQKITAKLPQVANGGTSICRGLKAGFQAIIHSDQSTSGSEIILLTDGEDNEINSCFEDVKRSGAIIHTIALGPSAAKELETKSNMTGGYRFFANKDITGLTNAFSRISSRSGSITQQAIQLESKALKITGRKRVNGTVPVDSTVGNDTFFVVTWTIQKPEIVLQDPKGKKYKTSDFKEDKLNIRSARLQIPGIAETGTWTYSLLNNHASSQMLTVTVTTRARSPTIPPVIATAHMSQHTAHYPSPMIVYAQVSQGFLPVLGISVIAIIETEDGHQVTLELWDNGAGRDTVKNDGIYSRYFTDYYGNGRYSLKVHAQARNNTARLNLRQPQNKVLYVPGYVENGKIILNPPRPEVKDDLAKAKIEDFSRLTSGGSFTVSGAPPPGNHPSVFPPSKITDLEAKFKEDYIQLSWTAPGNVLDKGKANSYIIRISKSFMDRQEDFDNATLVNTSNLIPKEAGSKENFEFKPEHFRVENGTKFYISVQAINEANLISEVSHIVQAIKFIPLPEDSVHDLGTKISEITLAILGLPMIFSVF
modifications: OTHER INFORMATION: Lu-ECAM-1 precursor from bovine endothelial cells
notes: wild type Lu-ECAM-1 purified with mAb 6D3 from extracts of bovine aortic endothelial cells

Key:
mCLCA1 = test: whole cell recording in mCLCA1-transfected HEK293 cells; format: cell-based, murine; details: for effect on Ca2+ sensitive chloride current under whole cell conditions: mCLCA1-transfected HEK293 cells
Excerpt: (§1) In another embodiment of the invention, mCLCA1 cDNA was cut from the pBluescript vector (Stratagene) with SacI and PvuI, blunt ended with Klenow Polymerase and inserted into the tetracycline sensitive mammalian expression vector (pTet-splice, Life Technologies, Inc.) at the EcoRV site. HEK293 cells were cotransfected with mCLCAl cDNA cloned into the pTet-splice along with a vector expressing a tetracycline activator (pTet-tTak) using standard transfection techniques well known to those skilled in the art and as described above (Lipofectamine, Life Technologies, Inc.). Cells were cotransfected with a reporter vector as described above. In another illustration of this embodiment, human CLCA1, HEK293 cells were transfected with either pcDNA 3.1 containing the CLCA1 insert and a reporter vector (enhanced green fluorescent protein, EGFP, CLONTECH) or the reporter vector alone. Transfection can be carried out by standard techniques known to those skilled in the art including CaPO4 precipitation or Lipofectamine (Life Technologies).
(§2) This embodiment illustrates that the full length cDNAs of the present invention encode calcium sensitive chloride channels. The various cDNAs were used for transfection of a cell line. For electrophysiological studies, cells were also cotransfected with a reporter vector (pEGFP, CLONTECH). Cotransfection with a reporter vector allows for easy identification of transfected cells by visualization under a fluorescent microscope. Whole cell recording was then carried out in the transfected cells to determine the presence of calcium sensitive chloride channels.
(§3) Transfected cells were used for electrophysiological recording. Cells were superfused with a bath solution containing 112 mM NMDG-Cl, 30 mM sucrose, 1 mM EGTA, 0.366 mM CaCl2, 2 mM MgCl2, 5 mM N-2-hydroxy-xyethanylpiperazine-N-2-ethanesulfonic acid. Whole cell channel activity was recorded in transfected cells by using borosilicate glass electrodes (tip resistance 4-9 M ohms) filled with the bath solution. Recordings were carried out in the presence or absence of a […] channel inhibitors (DIDS, niflumic acid and DTT). To determine the effect of ionomycin on channel activity, electrodes filled with standard bath solution containing either 5 mM ATP and 1 mM EGTA in the presence of low intracellular calcium. After gigaohm seal formation, cells were clamped at +20 mV. Whole cell currents were recorded at room temperature, sampled at 5-10 kHz and filtered at 1-2 kHz. The I-V relationship was determined using 300 ms voltage steps from a holding potential of +20 mV to potentials from −100 to +100 mV at 10 mV intervals. To normalize measured membrane currents to membrane currents to membrane capacitance, the capacitive current transient recorded in response to a 10 mV hyperpolarizing pulse was integrated and divided by the given voltage to give total membrane capacitance (Cm) for each cell.

hCLCA2 = test: whole cell recording in hCLCA2-transfected HEK293 cells; format: cell-based, human; details: for sensitivity of the current to inhibitor: DIDS 300 uM, DTT 2 mM, niflumic acid 100 uM, tamoxifen 10 uM
Method: For human CLCA2, HEK293 cells were transfected using Lipofectamine using manufacturer's instructions. For example, 5 ul lipid and 0.5 ul of CLCA2 were cloned into pcDNA 3.1 per 35 mm well in a 2-3 hour incubation. For expression studies, the 2,832 bp CLCA2 ORF was PCR amplified from human trachea poly-A^+RNA (Clontech) following reverse transcription with Superscript RNase H reverse transcriptase (Life Technologies) and random hexamer priming. PCR was performed with Pwo DNA Polymerase (Boehringer; initial denaturation at 94° C. for 3 min, 35 cycles of 94° for 50 s, 58° C. for 30s, and 72° C. for 2 min with a time increment of 3 s per cycle for each extension step (72° C.), followed by a final extension step of 72° C. for 8 min). Primer sequences were (upstream primer: SEQ ID NO:41, downstream primer: SEQ ID NO:42 with NotI-linkers underlined). PCR products were gel purified, incubated with NotI, and cloned into the expression vector pcDNA3.1 (Invitrogen). Four different PCR products were sequenced to control for potential PCR-induced sequence errors. Cells were simultaneously cotransfected with a reporter vector as described above. Chloride channel conductance activity was recorded after allowing the cells to recover for 24 hours.
as §2, §3

hCLCA1 = test: whole cell recording in hCLCA1-transfected HEK293 cells; format: cell-based, human; details: for whole cell current after addition of inhibitor: hCLCA1-transfected cells, activated current 11.06 pA/pF
Excerpt: as §1, §2
as §3, with “To determine the effect of ionomycin on channel activity, electrodes filled with standard bath solution containing either 5 mM ATP and 1 mM EGTA in the presence of low intracellular calcium. After gigaohm seal formation, cells were clamped at +20 mV.” left out

[1] = test system: non-transfected or control-transfected cells; test: whole cell recording in non-transfected or control-transfected cells; format: cell-based; details: ionomycin 2 uM
Method: as §2
Transfected cells were used for electrophysiological recording. […] Whole cell channel activity was recorded in transfected cells by using borosilicate glass electrodes (tip resistance 4-9 M ohms) filled with the bath solution. […] Whole cell currents were recorded at room temperature, sampled at 5-10 kHz and filtered at 1-2 kHz. The I-V relationship was determined using 300 ms voltage steps from a holding potential of +20 mV to potentials from −100 to +100 mV at 10 mV intervals. To normalize measured membrane currents to membrane currents to membrane capacitance, the capacitive current transient recorded in response to a 10 mV hyperpolarizing pulse was integrated and divided by the given voltage to give total membrane capacitance (Cm) for each cell.

[2] = test system: lung-metastatic B16-Fl0 melanoma cells; test: tumor cell adhesion assay on Lu-ECAM-1 coated wells; format: cell-based; details: wells coated with 100 μg/ml protein; 10 minutes at 37° C.
Method: Recombinant (r) Lu-ECAM-1 and wild type (wt) Lu-ECAM-1 were compared in their adhesion ability to lung-metastatic B16-Fl0 melanoma cells. Using anti-Lu-ECAM-1 mAb 6D3, wtLu-ECAM-1 was purified from extracts of bovine aortic endothelial cells, and rLu-ECAM-1 was purified from extracts of transfected HEK293 cells. The tumor cell adhesion assay was performed as described previously (Zhu et al., 1992, supra). Briefly, 100 μg/ml in phosphate buffered saline of either wtLu-ECAM-1 or rLu-ECAM-1 was used to coat wells of 96 plates overnight at 4° C. Wells were then washed with tissue culture medium, and each well is seeded with a suspension of tissue culture medium and 2×10^4 tumor cells which had been radio-labelled. After being spun onto the coated wells at 15 g for 1 minute, and incubated for 10 minutes at 37° C., nonadherent tumor cells were spun off at 150 g for 5 minutes. Adherent tumor cells were then dissolved in 1% SDS and counted in a liquid scintillation counter. Tumor cell attachment is recorded as the percent cells bound of the total cells seeded. Inhibition of tumor cell adhesion is determined by first incubating the Lu-ECAM-1 coated wells with mAb 6D3 (10 μg/ml) for 1 hour at room temperature before the tumor cells are added.

B1GF10 melanoma cells = details: mouse, in vivo; cited from earlier work

Row | Molecule | effect on Ca2+ sensitive chloride current under whole cell conditions (mCLCA1) | sensitivity of the current to inhibitor (hCLCA2) | whole cell current after addition of inhibitor (hCLCA1) [pA/pF] | further results
1 | O=S(=O)(O)c1cc(N=C=S)ccc1C=Cc1ccc(N=C=S)cc1S(=O)(=O)O [DIDS] | inhibited | sensitive | 1.63 | whole cell current after perfusion of inhibitor (mCLCA1; 300 uM DIDS, 2 mM Ca2+, basal 12.01±6.31 pA/pF): 1.84 ±0.96 pA/pF
2 | O[C@@H](CS)[C@@H](O)CS [DTT] | inhibited | sensitive | 1.67 | 
3 | C[C@H](CCC(=O)O)C[C@H](C)C[C@H](C)C(=O)/C=C(\O)[C@H](C)C[C@H](C)C/C=C/[C@@H](C)[C@@H](O)[C@@H](C)[C@@H](O)C[C@@H]1CC[C@@](C)([C@H]2CC[C@@](C)([C@@H](C)O)O2)O1 [ionomycin] |  |  |  | whole cell current at +100 mV with ionomycin (mCLCA1; ionomycin 2 uM, low intracellular free Ca2+, basal 2.05±1.09 pA/pF): 10.23±3.46 pA/pF; effect of ionomycin on current in non-transfected or control-transfected cells [1]: No significant effect; activation of the current by ionomycin (hCLCA2; ionomycin 4 uM in bath, pipet about 25 nM Ca2+, 2 mM Ca2+ in the bath): activated the current; maximally activated current at +100 mV after external perfusion of ionomycin (hCLCA1; ionomycin 2 uM, increase from 0.65 pA/pF): 11.06 pA/pF
4 | O=C(O)c1cccnc1Nc1cccc(C(F)(F)F)c1 [niflumic acid] | inhibited | sensitive | 2.07 | 
5 | CC/C(=C(\c1ccccc1)c1ccc(OCCN(C)C)cc1)c1ccccc1 [tamoxifen] |  | sensitive |  | 
6 | B1 |  |  |  | adhesion of lung-metastatic tumor cells supported (percent cells bound of the total cells seeded) [2]: 43%; prevention or inhibition of metastatic colonization of the lungs by B1GF10 cells (B1GF10 melanoma cells): inhibition of metastatic colonization
